Assay results from PubChem BioAssay (NCI).
Several values for one entry are separate records, joined by “and”; a condition that tells them apart may be missing. Equal values may be shown once.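 Method: 48-hour compound exposure of cells in 96-well plates, five concentrations, linear interpolation of endpoints. GI50 marks 50% less growth. The concentration for full growth arrest is given as TGI.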

Experiments:
Assay in all cases: NCI tumour cell line growth inhibition, 48 h
[1] = tested on: SF-295 CNS
[2] = tested on: RPMI-8226 leukemia
[3] = tested on: IGROV1 ovarian
[4] = tested on: UACC-62 melanoma
[5] = tested on: HCT-116 colon
[6] = tested on: HS 578T breast
[7] = tested on: SF-539 CNS
[8] = tested on: UO-31 renal
[9] = tested on: NCI-H522 lung
[10] = tested on: UACC-257 melanoma

Structure (SMILES)	GI50 [1]	TGI [1]	TGI [2]	GI50 [3]	TGI [3]	TGI [4]	TGI [5]	GI50 [6]	TGI [6]	GI50 [7]	TGI [7]	GI50 [8]	TGI [8]	GI50 [9]	TGI [9]	TGI [10]	GI50 [2]	GI50 [4]	GI50 [5]	GI50 [10]
CC1C(=O)C(C)C(c2ccccc2)N(N=O)C1c1ccccc1 (configuration not stated)	181 µM	498 µM	> 1000 µM	216 µM	> 673 µM	> 655 µM	354 µM	28.6 µM	186 µM	> 50.3 µM	> 79 µM and 310 µM	268 µM	> 829 µM	> 385 µM	> 601 µM	> 897 µM	–	–	–	–
Fc1cccc(COc2ccc(Nc3ncnc4cc(-c5ccc[nH]5)sc34)cc2Cl)c1	0.548 µM	> 19.9 µM	> 15.9 µM	0.406 µM	11.7 µM	> 22.8 µM	> 25 µM	4.53 µM	21.2 µM	0.931 µM	4.81 µM	0.245 µM	2.52 µM	1.48 µM	> 7.14 µM	> 25 µM	0.133 µM	5.77 µM	7.46 µM	9.38 µM
COc1cc(-c2cn(-c3ccc(Cl)cc3)c(C)c2C(=O)C(F)(F)F)cc(OC)c1OC	> 100 µM	> 100 µM	> 100 µM	> 100 µM	> 100 µM	> 100 µM	> 100 µM	> 100 µM	> 100 µM	> 100 µM	> 100 µM	19.2 µM	> 100 µM	37 µM	> 100 µM	> 100 µM	5.3 µM	> 100 µM	7.03 µM	14.1 µM
COc1ccc(-c2cncn2-c2ccc(OC)cc2)cc1	12.7 µM	47 µM	32.5 µM	18.7 µM	62.5 µM	53.1 µM	44 µM	17.5 µM	56 µM	11.2 µM	29.2 µM	17.2 µM	53.6 µM	13.6 µM	38.3 µM	62.2 µM	10.9 µM	15.7 µM	20.5 µM	21.4 µM
OCc1ccc(-c2nn(Cc3ccccc3)c3ccccc23)o1	13.4 µM and 18.5 µM	33.7 µM and 46 µM	43.8 µM and 15.3 µM	0.508 µM and 0.288 µM	22.5 µM and > 93.1 µM	16.4 µM and > 44.4 µM	20 µM and 22.7 µM	17.8 µM and 15.9 µM	> 69.9 µM and 42.4 µM	16.2 µM and 18.6 µM	32.2 µM and 35.5 µM	13.7 µM and 23.8 µM	57.4 µM and > 84.7 µM	12 µM and 20.6 µM	28.2 µM and > 58.7 µM	0.972 µM and 1.59 µM	14.3 µM and 3.15 µM	0.52 µM and 3.41 µM	1.65 µM and 8.72 µM	0.268 µM and 0.32 µM
O=C1C(Cl)=C(Nc2cccc(O)c2)C(=O)N1c1cc(Cl)c(Cl)cc1Cl	20.6 µM	53.2 µM	45.8 µM	8.87 µM	21.2 µM	32.5 µM	30.2 µM	17.6 µM	39.4 µM	14.9 µM	34.3 µM	13.5 µM	26.4 µM	14.3 µM	28 µM	77.2 µM	14.4 µM	17.2 µM	15.8 µM	30.3 µM
COC(=O)CNC(=O)[C@@H](OC)[C@@H]1Cc2cc3cc(OC4CC(OC5CC(O)C(O)C(C)O5)C(O)C(C)O4)c(C)c(O)c3c(O)c2C(=O)[C@H]1OC1CC(OC2CC(OC3CC(C)(O)C(O)C(C)O3)C(O)C(C)O2)C(O)C(C)O1 (some centres not stated)	0.109 µM	> 50 µM	1.38 µM	0.192 µM	> 50 µM	0.26 µM	5.38 µM	0.123 µM	2.64 µM	0.141 µM	2.3 µM	0.45 µM	12.8 µM	0.0921 µM	0.372 µM	1.58 µM	0.116 µM	0.0536 µM	0.0462 µM	0.146 µM
CCCCN(Cc1ccc(F)cc1)c1ccc(CO)c(Cl)c1	3.96 µM	17.2 µM	36.3 µM	0.677 µM	3.49 µM	4.84 µM	13.2 µM	17.7 µM	40.9 µM	17.7 µM	32.6 µM	10.6 µM	23.6 µM	15 µM	30.1 µM	3.75 µM	10.1 µM	0.903 µM	0.906 µM	0.862 µM
C=C1C(=O)O[C@H]2[C@H]1CC/C(COC(=O)N1CCC[C@H]1C(=O)Nc1ccc(OC)c(C(N)=O)c1O)=C\CC[C@@]1(C)O[C@@H]21	12.1 µM	27.4 µM	4.87 µM	2.82 µM	9.13 µM	7.66 µM	3.06 µM	17.9 µM	> 100 µM	2.07 µM	5.76 µM	2.11 µM	8.97 µM	1.68 µM	4.07 µM	10.9 µM	1.93 µM	2.39 µM	1.33 µM	2.88 µM
Cn1ccnc1C(=O)/C=C/c1ccc(CC(=O)Nc2ccccc2)cc1	5.44 µM	16.5 µM	9.7 µM	2.11 µM	14.5 µM	9.95 µM	5.13 µM	14.2 µM	> 25 µM	2.43 µM	7.52 µM	2.77 µM	5.86 µM	3.2 µM	6.45 µM	21.1 µM	1.45 µM	4.13 µM	1.68 µM	6.98 µM
C=C(C)C(=O)O[C@H]1[C@H]2[C@H](OC(=O)[C@H]2C)[C@H](O)[C@@H](C)[C@@H]2C=CC(=O)[C@]21C	–	18.7 µM	9.73 µM	–	7 µM	3.84 µM	4.6 µM	–	32.5 µM	–	16.5 µM	–	15.4 µM	–	2.68 µM	7.73 µM	–	–	–	–
CCOc1ccc(NCc2cc(OC)c(OC)c(OC)c2)cc1	–	3.44 µM	57 µM and > 74.6 µM	–	> 84 µM	> 100 µM	48.2 µM and 46 µM	0.823 µM	> 100 µM	–	2.95 µM and 3.25 µM	–	> 100 µM	–	1.78 µM and 2.55 µM	> 100 µM	–	–	–	–
Cc1cc2c3ccccc3n(C)c2c2c1C(=O)C=CC2=O	–	54.3 µM	5.47 µM	–	36.8 µM	32.4 µM	39.2 µM	–	55.2 µM	–	41.9 µM	–	46.4 µM	–	31.8 µM	18.7 µM	–	–	–	–
